Among the data in ChEMBL document CHEMBL4480385, “Design, synthesis and molecular docking studies of novel N-arylsulfonyl-benzimidazoles with anti Trypanosoma cruzi activity” (Eur J Med Chem, 2019) are pIC50, selectivity ratio and IC50 values, retold here.

Data set [1] in a line: Inhibition of Trypanosoma cruzi holoenzyme form of PFK.
A short description of data set [2]: Inhibition of Trypanosoma cruzi apoenzyme form of PFK.
Data set [3] is described as follows: Selectivity index, ratio of IC50 for African green monkey Vero cells to IC50 for Trypanosoma cruzi IRHOD/CO/2008/SN3 amastigotes infected in African green monkey Vero cells. The data set is classed as toxicity. As to conditions: read-out: Ratio IC50.
Data set [4] relates to Trypanosoma cruzi. The data set can be described thus: Anti-trypanosomal activity against Trypanosoma cruzi IRHOD/CO/2008/SN3 epimastigotes after 72 hrs by Neubauer hemocytometric method. The data set is classed as functional, organism-based. Particulars: IRHOD/CO/2008/SN3, 72 h.
Data set [5] is described as follows: Selectivity index, ratio of IC50 for African green monkey Vero cells to IC50 for Trypanosoma cruzi IRHOD/CO/2008/SN3 epimastigotes. The data set is classed as toxicity. As to conditions: read-out: Ratio IC50.
The test system of data set [6] is Vero. The data set can be described thus: Cytotoxicity against African green monkey Vero cells after 72 hrs by propidium iodide/fluorescein diacetate staining based flow cytometry. The data set is classed as cell-based. As to conditions: Chlorocebus sabaeus. A general note: In flow cytometry, cells or beads pass a laser one at a time.
In data set [7] the test system is Trypanosoma cruzi. The data set is described as follows: Anti-trypanosomal activity against Trypanosoma cruzi IRHOD/CO/2008/SN3 amastigotes infected in African green monkey Vero cells after 72 hrs by Giemsa-staining based microscopic analysis. As to conditions: IRHOD/CO/2008/SN3, Vero. The data set is classed as functional, organism-based.

What is called pIC50 is the negative decadic logarithm of the IC50, by convention in mol/L. Consider `Cc1cc(NS(=O)(=O)c2ccc(NC(=O)CCc3ccc(Cl)c(Cl)c3)cc2)no1`, for which the pIC50 in data set [1] and in data set [2] was 4.06 throughout.

Consider `O=C(Cc1ccc(Cl)c(Cl)c1)Nc1ccc(S(=O)(=O)Nc2cc[nH]n2)cc1`, for which the pIC50 in data set [1] and in data set [2] was 2.86 throughout.

As for `O=C(Cc1ccc(Cl)c(Cl)c1)Nc1ccc(S(=O)(=O)Nc2nncs2)cc1`, the pIC50 in data set [1] and in data set [2] was 1.72 each time.

In the case of `Cc1cc(NS(=O)(=O)C2CCN(C(=O)Cc3ccc(Cl)c(Cl)c3)CC2)no1`, the negative logarithm of the IC50 (pIC50) in data set [1] and in data set [2] was 4.16 each time.

Take `Cc1cc(NS(=O)(=O)c2ccc(NC(=O)Cc3ccc(Cl)c(Cl)c3)cc2)n(C)n1`: the pIC50 in data set [1] was 2.96; in data set [2] it was 3.06.

`Cc1cc(N(C)S(=O)(=O)c2ccc(NC(=O)Cc3ccc(Cl)c(Cl)c3)cc2)no1`: the pIC50 in data set [1] and in data set [2] was 3.41 in each case.

On to `CN(C)c1cccc(NS(=O)(=O)c2ccc(NC(=O)Cc3ccc(Cl)c(Cl)c3)cc2)c1`, for which the pIC50 in data set [1] and in data set [2] was 4.11 throughout.

For the compound `Cc1cc(NS(=O)(=O)c2ccc(NC(=O)Cc3ccc(Cl)c(C(F)(F)F)c3)cc2)no1`, the pIC50 came to 2.86 in data set [1] and 2.96 in data set [2].

For `Cc1cc(NS(=O)(=O)c2ccc(NC(=O)c3ccc(Cl)c(Cl)c3)cc2)no1`, the pIC50 in data set [1] and in data set [2] was 4.31 throughout.

In the case of `Cc1cc(NS(=O)(=O)c2ccc(N(C)C(=O)Cc3ccc(Cl)c(Cl)c3)cc2)no1`, the pIC50 came out at 3.06 in data set [1] and 3.16 in data set [2].

Take `Cc1cc(NS(=O)(=O)Cc2ccc(NC(=O)Cc3ccc(Cl)c(Cl)c3)cc2)no1`: the pIC50 in data set [1] and in data set [2] was 3.66 in each case.

For orientation: IC50 means the concentration needed to halve the response being measured. Take `O=S(=O)(c1ccc(Br)cc1)n1cnc2ccccc21`: the selectivity ratio was 33.3 in data set [3] and 50.5 in data set [5]. The values for the IC50 in data set [4], in data set [6] and in data set [7] were 23.5 µM, 1190 µM and 35.7 µM, respectively. This compound returned a pIC50 in data set [2] of 4.37.

In the case of `Cc1cc(NS(=O)(=O)c2ccc(C(=O)NCc3ccc(Cl)c(Cl)c3)cc2)no1`, the pIC50 in data set [1] and in data set [2] was 3.51 throughout.

Turning to `O=C(Cc1ccc(Cl)c(Cl)c1)Nc1ccc(S(=O)(=O)Nc2ccon2)cc1`, the pIC50 in data set [1] and in data set [2] was 2.11 throughout.

`Cc1cc(NS(=O)(=O)c2ccc(NC(=O)Cc3ccc(C)c(F)c3)cc2)no1`: the pIC50 in data set [1] and in data set [2] was 3.81 in each case.

`Cc1cc(NS(=O)(=O)c2ccc(NC(=O)Cc3cccc(Cl)c3)cc2)no1`: the pIC50 in data set [1] and in data set [2] was 3.46 each time.

Turning to `Cc1cc(NS(=O)(=O)c2ccc(NC(=O)Cc3ccc(Cl)cc3)cc2)no1`, the pIC50 in data set [1] amounted to 3.11; in data set [2], 3.21.

For `O=C(Cc1ccc(Cl)c(Cl)c1)Nc1ccc(S(=O)(=O)Nc2ccccc2)cc1`, the pIC50 in data set [1] and in data set [2] was 4.21 throughout.

Regarding `O=C(Cc1ccc(F)c(Cl)c1)Nc1ccc(S(=O)(=O)Nc2nccs2)cc1`, the pIC50 in data set [1] and in data set [2] was 2.07 throughout.

With `Cc1cc(NS(=O)(=O)c2ccc(NC(=O)Cc3ccc(Cl)c(F)c3)cc2)no1`, the pIC50 in data set [1] and in data set [2] was 2.81 each time.

For `Cc1cc(NS(=O)(=O)c2ccc(NC(=O)Cc3ccc(F)c(Cl)c3)cc2)no1`, the pIC50 in data set [1] and in data set [2] was 2.66 throughout.

Consider `COc1ccc(CC(=O)Nc2ccc(S(=O)(=O)Nc3cc(C)on3)cc2)cc1C`, for which the pIC50 in data set [1] and in data set [2] was 4.31 throughout.

For `Cc1cc(NS(=O)(=O)c2ccc(NCCc3ccc(Cl)c(Cl)c3)cc2)no1`, the pIC50 in data set [1] and in data set [2] was 4.21 each time.

Turning to `Cc1ccc(S(=O)(=O)n2cnc3ccccc32)cc1`, the IC50 turned out to be 23.8 µM in data set [4] and 108 µM in data set [6]. For the same compound, in data set [2], the pIC50 is 4.38. Besides, the selectivity ratio in data set [5] is 4.5.

For the compound `O=C(Cc1ccc(Cl)c(Cl)c1)Nc1ccc(S(=O)(=O)Nc2nccs2)cc1`, the pIC50 in data set [1] and in data set [2] was 1.61 in each case.

With `Cc1cc(NS(=O)(=O)c2ccc(NC(=O)Cc3ccc(C)c(C)c3)cc2)no1`, the pIC50 in data set [1] and in data set [2] was 3.81 throughout.

For `Cc1cc(NS(=O)(=O)c2ccc(NC(=O)C(C)(C)c3ccc(Cl)c(Cl)c3)cc2)no1`, the pIC50 in data set [1] and in data set [2] was 4.56 each time.

`Cc1cc(NS(=O)(=O)c2cccc(NC(=O)Cc3ccc(Cl)c(Cl)c3)c2)no1`: the pIC50 in data set [1] and in data set [2] was 4.21 throughout.

Regarding `Cc1cc(NS(=O)(=O)c2ccc(NC(=O)Cc3ccccc3)cc2)no1`, the pIC50 in data set [1] and in data set [2] was 4.31 each time.

Take `Cc1cc(NS(=O)(=O)c2ccc(NC(=O)Cc3ccc(Cl)cc3Cl)cc2)no1`: the pIC50 in data set [1] and in data set [2] was 4.21 throughout.

`CC(=O)c1ccc(S(=O)(=O)n2cnc3ccccc32)cc1`: the values for the IC50 in data set [4] and in data set [6] were 26.8 µM and 656 µM, respectively. In data set [2], the pIC50 is reported as 4.43. The selectivity ratio in data set [5] is 24.5.

For `O=S(=O)(c1cccc(C(F)(F)F)c1)n1cnc2ccccc21`, the IC50 amounted to 13.9 µM in data set [4] and 59.8 µM in data set [6]. Also, the pIC50 in data set [2] stood at 4.14. Also, the selectivity ratio in data set [5] was 4.3.

With `Cc1cc(NS(=O)(=O)c2ccc(NC(=O)Cc3ccc(Cl)c(Cl)c3)cc2)no1`, the pIC50 in data set [1] and in data set [2] was 2.36 throughout.

Consider `Cc1cc(NS(=O)(=O)c2ccc(NC(=O)Cc3ccc4ccccc4c3)cc2)no1`, for which the results for the pIC50 in data set [1] and in data set [2] were 3.26 and 3.31, respectively.

Consider `O=C(Cc1ccc(F)c(Cl)c1)Nc1ccc(S(=O)(=O)Nc2nncs2)cc1`, for which the pIC50 in data set [1] and in data set [2] was 2.23 throughout.

As to `O=C(Cc1ccc(Cl)c(Cl)c1)Nc1ccc(S(=O)(=O)Nc2cccc(O)c2)cc1`, the pIC50 in data set [1] was 3.16; in data set [2], 3.26.

In the case of `O=S(=O)(c1ccc(Cl)cc1)n1cnc2ccccc21`, the values for the IC50 in data set [4] and in data set [6] were 16.8 µM and 122 µM, respectively. In addition, the pIC50 in data set [2] is listed as 4.23. Also, the selectivity ratio in data set [5] was 7.3.
